This passage reports IC50 and Ki results from ChEMBL document CHEMBL1909046, “DrugMatrix in vitro pharmacology data”.

The term pIC50 denotes the IC50 on a negative log10 scale, so that one unit is a factor of ten. By pKi is commonly meant the negative decadic logarithm of the Ki, by convention in mol/L.

pIC50, pKi: −log10 of the molar value.

For experiment [1], the target named is Mitogen-activated protein kinase 1 (Homo sapiens, UniProt P28482). The experiment is described as follows: DRUGMATRIX: Protein Serine/Threonine Kinase, ERK2 enzyme inhibition (substrate: Myelin Basic Protein). The arrangement: species or system Escherichia coli. To be noted: Not Active = under 50% inhibition at 10 µM.
Experiment [2] has as its target T1, Alpha-2C adrenergic receptor (Homo sapiens, UniProt P18825).
T1 sequence (P18825 whole entry): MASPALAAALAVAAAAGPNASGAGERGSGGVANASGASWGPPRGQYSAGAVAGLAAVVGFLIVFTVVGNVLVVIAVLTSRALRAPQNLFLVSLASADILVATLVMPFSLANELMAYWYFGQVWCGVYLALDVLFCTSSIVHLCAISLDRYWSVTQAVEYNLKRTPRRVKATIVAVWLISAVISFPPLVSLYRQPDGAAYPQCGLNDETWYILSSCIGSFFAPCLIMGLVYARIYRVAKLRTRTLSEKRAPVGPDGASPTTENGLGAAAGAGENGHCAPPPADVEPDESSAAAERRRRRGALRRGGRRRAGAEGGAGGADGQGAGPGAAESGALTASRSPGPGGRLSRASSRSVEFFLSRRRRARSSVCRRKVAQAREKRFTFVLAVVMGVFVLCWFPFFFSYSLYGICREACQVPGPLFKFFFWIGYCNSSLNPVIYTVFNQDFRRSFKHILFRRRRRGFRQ
Kind of experiment: DRUGMATRIX: Adrenergic Alpha-2C radioligand binding (ligand: [3H] MK-912). Type of experiment: cell membranes, Sf9, Membrane. The settings on record: for IC50: sf9.

A short description of experiment [3]: DRUGMATRIX: Tumor Necrosis Factor (TNF), Non-Selective radioligand binding (ligand: [125I] TNF-alpha). To be noted: u-937; Not Active = under 50% inhibition at 10 µM. It is filed as cell membranes, Membrane.
Experiment [4] is described as follows: DRUGMATRIX: Leukotriene, BLT (LTB4) radioligand binding (ligand: [3H]LTB4). It is filed as cell membranes, Membrane. The settings on record: u-937; Not Active = under 50% inhibition at 10 µM.
Experiment [5] is described as follows: DRUGMATRIX: Phorbol Ester radioligand binding (ligand: [3H] PDBu). It is filed as cell membranes, Mus musculus, ICR, Brain, Membrane. To be noted: Not Active = under 50% inhibition at 10 µM.
In experiment [6] the target is Beta-1 adrenergic receptor (Homo sapiens, UniProt P08588). Kind of experiment: DRUGMATRIX: Adrenergic beta1 radioligand binding (ligand: [125I] Cyanopindolol). Type of experiment: cell membranes, CHO-K1, Membrane. To be noted: cho-k1; Not Active = under 50% inhibition at 10 µM.
Chain of Beta-1 adrenergic receptor (P08588 whole entry): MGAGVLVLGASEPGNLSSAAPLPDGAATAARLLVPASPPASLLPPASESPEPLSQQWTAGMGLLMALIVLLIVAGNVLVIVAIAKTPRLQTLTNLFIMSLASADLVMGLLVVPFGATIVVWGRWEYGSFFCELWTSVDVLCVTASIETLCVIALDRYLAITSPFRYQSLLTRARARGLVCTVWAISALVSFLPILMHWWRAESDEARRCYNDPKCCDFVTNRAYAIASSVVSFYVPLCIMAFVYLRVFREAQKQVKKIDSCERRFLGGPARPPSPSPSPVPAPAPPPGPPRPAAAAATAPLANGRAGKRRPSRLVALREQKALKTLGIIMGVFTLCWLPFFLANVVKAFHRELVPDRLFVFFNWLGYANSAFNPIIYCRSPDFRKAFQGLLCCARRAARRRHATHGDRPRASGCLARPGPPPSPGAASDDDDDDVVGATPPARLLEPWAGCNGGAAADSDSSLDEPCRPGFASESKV

Chain of Mitogen-activated protein kinase 1 (P28482 whole entry): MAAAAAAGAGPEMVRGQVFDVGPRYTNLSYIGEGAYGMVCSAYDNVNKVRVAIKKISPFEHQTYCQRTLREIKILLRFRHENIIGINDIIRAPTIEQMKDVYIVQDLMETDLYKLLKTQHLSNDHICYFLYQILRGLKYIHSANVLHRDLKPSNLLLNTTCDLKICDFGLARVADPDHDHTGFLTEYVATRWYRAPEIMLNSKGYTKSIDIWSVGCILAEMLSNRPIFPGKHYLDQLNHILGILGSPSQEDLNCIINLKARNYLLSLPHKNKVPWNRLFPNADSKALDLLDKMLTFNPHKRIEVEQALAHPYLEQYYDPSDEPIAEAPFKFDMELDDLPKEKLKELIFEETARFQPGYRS

Regarding `Cc1ccc(Cl)c(Nc2ccccc2C(=O)O)c1Cl` [MECLOFENAMIC ACID], the negative logarithm of the IC50 (pIC50) in experiment [1] (read-out: IC50) was 5.50. Further, the IC50 result in experiment [2], in experiment [3], in experiment [4], in experiment [5] and in experiment [6] was “Not Active” each time. The Ki entry in experiment [3], in experiment [4] and in experiment [5] was “Not Active” throughout.
`CCOc1cc(N)c(Cl)cc1C(=O)NCC1CN(Cc2ccc(F)cc2)CCO1` (centres undefined) [MOSAPRIDE]: the IC50 entry in experiment [1], in experiment [2], in experiment [3], in experiment [4], in experiment [5] and in experiment [6] was “Not Active” each time. Besides, the Ki result in experiment [3], in experiment [4] and in experiment [5] was “Not Active” throughout.
Consider `CN1C[C@H](CNC(=O)OCc2ccccc2)C[C@@H]2c3cccc4c3c(cn4C)C[C@H]21` [METERGOLINE], for which the IC50 entry in experiment [1], in experiment [3], in experiment [4], in experiment [5] and in experiment [6] was “Not Active” in each case. The pIC50 in experiment [2] (read-out: IC50) was 6.72. In addition, in experiment [2] (read-out: Ki), the pKi is 7.57. Also, the Ki entry in experiment [3], in experiment [4] and in experiment [5] was “Not Active” throughout.
As to `C1CCN2C[C@@H]3C[C@@H](CN4CCCC[C@@H]34)[C@H]2C1` [SPARTEINE], the IC50 entry in experiment [1], in experiment [2], in experiment [3], in experiment [4], in experiment [5] and in experiment [6] was “Not Active” throughout. The Ki entry in experiment [3], in experiment [4] and in experiment [5] was “Not Active” each time.
Turning to `CO[C@@H]1[C@@H](OC)[C@H](C)[C@@](O)(CC(=O)O)O[C@H]1[C@H](C)[C@H]1O[C@@]2(CC[C@@](C)([C@H]3CC[C@@](C)([C@@H]4O[C@@H]([C@H]5O[C@](C)(O)[C@H](C)C[C@@H]5C)C[C@@H]4O[C@@H]4C[C@H](OC)[C@@H](OC)[C@H](C)O4)O3)O2)C[C@H](O)[C@H]1C.N` [MADURAMICIN], the IC50 result in experiment [1], in experiment [2], in experiment [3], in experiment [4], in experiment [5] and in experiment [6] was “Not Active” in each case. Moreover, the Ki result in experiment [3], in experiment [4] and in experiment [5] was “Not Active” throughout.
Turning to `CN1C(=O)OC(C)(C)C1=O` [TRIMETHADIONE], the IC50 result in experiment [1], in experiment [2], in experiment [3], in experiment [4], in experiment [5] and in experiment [6] was “Not Active” each time. Besides, the Ki result in experiment [3], in experiment [4] and in experiment [5] was “Not Active” throughout.
For the compound `CC1(C)[C@H](C(=O)O)N2C(=O)C[C@H]2S1(=O)=O` [SULBACTAM], the IC50 entry in experiment [1], in experiment [2], in experiment [3], in experiment [4], in experiment [5] and in experiment [6] was “Not Active” throughout. Further, the Ki result in experiment [3], in experiment [4] and in experiment [5] was “Not Active” in each case.
